Experimental findings from ChEMBL document CHEMBL5303304, “EUbOPEN Chemogenomics Library - IncuCyte” (2023) are described below.

Common to all, as to format: toxicity, cell-based
Series [1] deals with HEK-293T. The experiment in a line: Incucyte cell viability with HEK293T. The conditions noted are these: human, 10 µM, compound concentration 10 uM.
Series [2] deals with Fibroblast. The experiment in a line: Incucyte cell viability with human fibroblast. Particulars: 10 µM, compound concentration 10 uM.
For series [3], the system named is U2OS. The experiment in a line: Incucyte cell viability with U2OS. Particulars: human, 10 µM, compound concentration 10 uM.

Structures are written as SMILES.
Note: unitless GR value; below 1 slowed growth and below 0 cell loss.

For the molecule `CC(C)n1cnc2c(Nc3cccc(Cl)c3)nc(N[C@H]3CCCC[C@@H]3N)nc21`, the “Growth Rate” value is given as -0.96 in series [1] (6 h, replicate number 1); -0.92 in series [1] (6 h, replicate number 2); -0.82 in series [1] (12 h, replicate number 1); -0.59 in series [1] (12 h, replicate number 2); -0.56 in series [1] (18 h, replicate number 1); -0.35 in series [1] (18 h, replicate number 2). Besides, the “Growth Rate” value in series [1] (24 h, replicate number 1) was -0.46; in series [1] (24 h, replicate number 2), -0.25; in series [2] (6 h, replicate number 1), -1; in series [2] (6 h, replicate number 2) it was -0.94; in series [2] (12 h, replicate number 2), -0.16; in series [2] (18 h, replicate number 2), -0.01. Besides, the “Growth Rate” value is listed as 0.13 in series [2] (24 h, replicate number 2); -1 in series [3] (0 h, replicate number 1); 0.85 in series [3] (6 h, replicate number 1); 0.88 in series [3] (6 h, replicate number 2); -0.26 in series [3] (12 h, replicate number 1); -0.22 in series [3] (12 h, replicate number 2). The “Growth Rate” value in series [3] (18 h, replicate number 1) is listed as -0.12; in series [3] (18 h, replicate number 2) it was -0.25; in series [3] (24 h, replicate number 1), -0.14; in series [3] (24 h, replicate number 2), -0.2.
For the molecule `Cl.Cl.NC1(c2ccc(-c3nc4ccn5c(=O)[nH]nc5c4cc3-c3ccccc3)cc2)CCC1`, the “Growth Rate” value in series [1] (6 h, replicate number 1) is -0.64; in series [1] (6 h, replicate number 2) it was -0.68; in series [1] (12 h, replicate number 1), -0.64; in series [1] (12 h, replicate number 2), -0.42; in series [1] (18 h, replicate number 1), -0.54; in series [1] (18 h, replicate number 2) it was -0.27. Further, the “Growth Rate” value is -0.48 in series [1] (24 h, replicate number 1); -0.24 in series [1] (24 h, replicate number 2); -0.87 in series [2] (6 h, replicate number 1); -1 in series [2] (6 h, replicate number 2); -1 in series [2] (12 h, replicate number 1); -0.83 in series [2] (12 h, replicate number 2). Further, the “Growth Rate” value in series [2] (18 h, replicate number 2) was -0.54; in series [2] (24 h, replicate number 2) it was -0.32; in series [3] (24 h, replicate number 1) it was 1.
Turning to `CCN1CCN(Cc2ccc(NC(=O)c3ccc(C)c(Oc4ccnc5[nH]ccc45)c3)cc2C(F)(F)F)CC1.Cl.Cl.Cl.O`, the “Growth Rate” value in series [1] (6 h, replicate number 1) is listed as -0.97; in series [1] (6 h, replicate number 2) it was -0.99; in series [1] (12 h, replicate number 1), -0.89; in series [1] (12 h, replicate number 2), -0.8; in series [1] (18 h, replicate number 1) it was -0.7; in series [1] (18 h, replicate number 2) it was -0.55. For the same molecule, the “Growth Rate” value in series [1] (24 h, replicate number 1) is -0.63; in series [1] (24 h, replicate number 2) it was -0.43; in series [2] (6 h, replicate number 1), -0.67; in series [2] (12 h, replicate number 1), -1; in series [2] (12 h, replicate number 2), 0.02; in series [2] (18 h, replicate number 2), -0.03. The “Growth Rate” value was -0.05 in series [2] (24 h, replicate number 2); -0.12 in series [3] (0 h, replicate number 1); -0.97 in series [3] (0 h, replicate number 2); 0.57 in series [3] (6 h, replicate number 2); 0.84 in series [3] (12 h, replicate number 1); 0.38 in series [3] (12 h, replicate number 2). The “Growth Rate” value was 0.36 in series [3] (18 h, replicate number 1); 0.15 in series [3] (18 h, replicate number 2); 0.17 in series [3] (24 h, replicate number 1); 0.04 in series [3] (24 h, replicate number 2).
For the molecule `COc1ccc(CSc2nnc(-c3ccc4ncsc4c3)o2)cc1C(F)(F)F`, the “Growth Rate” value in series [1] (6 h, replicate number 2) is 0.47; in series [1] (12 h, replicate number 2), 0.75; in series [1] (18 h, replicate number 2), 0.76; in series [1] (24 h, replicate number 1), 0.95; in series [1] (24 h, replicate number 2), 0.76; in series [2] (0 h, replicate number 1), -1. For the same molecule, the “Growth Rate” value was 0.92 in series [2] (6 h, replicate number 1); 0.49 in series [2] (6 h, replicate number 2); 0.88 in series [2] (12 h, replicate number 1); 0.64 in series [2] (12 h, replicate number 2); 0.68 in series [2] (18 h, replicate number 1); 0.71 in series [2] (18 h, replicate number 2). For the same molecule, the “Growth Rate” value is on record as 0.64 in series [2] (24 h, replicate number 1); 0.84 in series [2] (24 h, replicate number 2); -0.97 in series [3] (0 h, replicate number 1); 0.81 in series [3] (0 h, replicate number 2); -0.59 in series [3] (6 h, replicate number 1); 0.78 in series [3] (6 h, replicate number 2). In addition, the “Growth Rate” value was 0.87 in series [3] (12 h, replicate number 2); -0.67 in series [3] (18 h, replicate number 2); 0.95 in series [3] (24 h, replicate number 2).
As for `O=C1CCCc2[nH]c(-c3ccnc(NCC4CC4)c3)c(Nc3ccccc3)c21`, the “Growth Rate” value is 0.41 in series [1] (6 h, replicate number 2); 0.66 in series [1] (12 h, replicate number 2); 0.94 in series [1] (18 h, replicate number 1); 0.62 in series [1] (18 h, replicate number 2); 0.88 in series [1] (24 h, replicate number 1); 0.7 in series [1] (24 h, replicate number 2). The “Growth Rate” value in series [2] (0 h, replicate number 1) was -1; in series [2] (6 h, replicate number 1), -0.03; in series [2] (12 h, replicate number 1), 0.34; in series [2] (12 h, replicate number 2), 0.57; in series [2] (18 h, replicate number 1), 0.49; in series [2] (18 h, replicate number 2), 0.89. Moreover, the “Growth Rate” value in series [2] (24 h, replicate number 1) amounted to 0.45; in series [2] (24 h, replicate number 2), 0.88; in series [3] (0 h, replicate number 1) it was 0.75; in series [3] (6 h, replicate number 1) it was 0.51; in series [3] (12 h, replicate number 1), 0.68; in series [3] (18 h, replicate number 1), 0.72. Besides, the “Growth Rate” value in series [3] (24 h, replicate number 1) was found to be 0.59; in series [3] (24 h, replicate number 2), 1.
Consider `CNC(=O)c1ccc2c(c1)NC(=O)/C2=C(\Nc1ccc(CN2CCCCC2)cc1)c1ccccc1.Cl.O`, for which the “Growth Rate” value in series [1] (6 h, replicate number 2) is recorded as 0.72; in series [1] (18 h, replicate number 2), 0.71; in series [1] (24 h, replicate number 1), 1; in series [1] (24 h, replicate number 2), 0.54; in series [2] (0 h, replicate number 1), -1; in series [2] (24 h, replicate number 2) it was 0.78. For the same molecule, the “Growth Rate” value is listed as -1 in series [3] (0 h, replicate number 1); 0.94 in series [3] (12 h, replicate number 1); 0.82 in series [3] (18 h, replicate number 1); 0.89 in series [3] (24 h, replicate number 1).
On to `CC1CCN(C(=O)[C@@H](CCn2cccc2C#N)NS(=O)(=O)c2cccc3[nH]ccc23)CC1`, for which the “Growth Rate” value in series [1] (6 h, replicate number 2) is recorded as 0.99; in series [2] (0 h, replicate number 2) it was -0.84; in series [2] (18 h, replicate number 2), 0.96; in series [3] (0 h, replicate number 1), 0.26; in series [3] (6 h, replicate number 1), 0.55; in series [3] (6 h, replicate number 2), 0.85. Further, the “Growth Rate” value in series [3] (12 h, replicate number 2) came to 0.81; in series [3] (24 h, replicate number 1), 0.86.
`CC1CNCCc2c1nc1ccnn1c2N1CC(C(=O)N2CCC(C)(C)C2)C1` (stereo not drawn): the “Growth Rate” value is 0.99 in series [1] (6 h, replicate number 2); -1 in series [2] (0 h, replicate number 1); 0.73 in series [2] (6 h, replicate number 1); -0.38 in series [2] (6 h, replicate number 2); 0.56 in series [2] (12 h, replicate number 1); 0.76 in series [2] (12 h, replicate number 2). For the same molecule, the “Growth Rate” value in series [2] (18 h, replicate number 1) stood at 0.7; in series [2] (18 h, replicate number 2), 0.74; in series [2] (24 h, replicate number 1), 0.84; in series [2] (24 h, replicate number 2), 0.97; in series [3] (0 h, replicate number 1) it was 0.03; in series [3] (6 h, replicate number 1), 0.99. Further, the “Growth Rate” value stood at 0.75 in series [3] (12 h, replicate number 1); 0.86 in series [3] (18 h, replicate number 1); 0.98 in series [3] (24 h, replicate number 1).
